Converted amounts (≈) assume the structure as drawn. Like-named read-outs stand apart in the source and are kept apart here. No end group written: not given here.
What was measured:
[1] = test system: staphylococci (strain not given); assay: Checkerboard analysis of PlySs2/CF-301 with AMPs, antimicrobial proteins and albumins in heat-inactivated human serum; format: cell-based, S. aureus; conditions: in combination with PlySs2/CF-301
MRSA strain MW2 [2] = assay: Checkerboard assay in human serum and MHB; format: cell-based, S. aureus; conditions: in combination with PlySs2 (CF-301)
[3] = test system: S. aureus (strain not given); assay: MIC analysis of various lysins, chimeric lysins and antibiotics in MHB and human serum; format: cell-based; conditions: Table 2; for Fold decrease in MIC: human serum vs MHB; for MIC: Staphylococcus aureus
[4] = test system: S. aureus (strain not given); assay: as above; format: cell-based; conditions: for Minimal inhibitory concentration, MHB / Fold decrease in MIC / Minimal inhibitory concentration, Human serum: Table 14 (Example 2); for Fold decrease in MIC: human serum vs MHB; for MIC: Staphylococcus aureus
Description: To further evaluate the binding domain relevance to the serum component effect, various chimerics were constructed by replacing or swapping out one binding domain for another. Chimeric lysins having the Sal1 CHAP catalytic domain with ClyS binding domain, PlySs2 (CF-301) binding domain, or lysostaphin binding domain were assayed for MIC using MHB versus human serum. the results are depicted below in TABLE 14.

S. aureus strain MW2 = assay: Synergy time-kill assay; format: cell-based; conditions: human serum
[5] = test system: methicillin-resistant S. aureus (MRSA) strain MW2; assay: Time-kill assay in blood matrices and MHB; format: cell-based; conditions: strain MW2; human blood matrices vs MHB
MRSA strain MW2 [6] = assay: Rabbit infective endocarditis model; format: in vivo, New Zealand White Rabbits; conditions: rabbit IE model; daptomycin 4 mg/kg IV once daily for 4 days

LEAP-1: Human AMP (Hepcidin) (DTHFPICIFCCGCCHRSKCGMCCKT; ends and bridges not checked; cysteine pairing not given here; UniProt P81172 60-84, looked up) [reference compound]
ΣFICavg [1]: 0.75

Histatin-5 [reference compound]
ΣFICavg [1]: ≥1.16

HNP-1: Human AMP [reference compound]
ΣFICavg [1]: 1

Lysozyme (Hen egg-white): lysozyme, hen egg
ΣFICavg [1]: ≤0.563

Lysostaphin: lysin-like enzyme of Staphylococcus simulans with SH3-type binding domain; SEQ ID NO:7
ΣFICAVG (MRSA strain MW2 [2]; HuS): 0.13
ΣFICMIN (MRSA strain MW2 [2]; HuS): 0.09
ΣFICAVG (MRSA strain MW2 [2]; MHB): 0.5
ΣFICMIN (MRSA strain MW2 [2]; MHB): 0.275
Minimal inhibitory concentration, MHB ([3]; MHB): 2 µg/mL
Fold decrease in MIC [3]: 512
Fold decrease in MIC ([3]; listed as lysostaphin): 32
Minimal inhibitory concentration, Human serum ([3]; human serum): 0.0039 µg/mL
Minimal inhibitory concentration, MHB [4]: 2 µg/mL
Fold decrease in MIC [4]: 512
Minimal inhibitory concentration, Human serum [4]: 0.0039 µg/mL
concentration of each agent in PlySs2 (CF-301) + lysostaphin combination sterilizing at 24 hours (S. aureus strain MW2): 0.005 µg/mL
difference in sterilizing activity/potency, blood compared to MHB [5]: 100 fold

Serum albumin (Rabbit, from serum): rabbit serum albumin
ΣFICavg [1]: ≤0.1

CN[C@H](CC(C)C)C(=O)N[C@H]1C(=O)N[C@@H](CC(N)=O)C(=O)N[C@H]2C(=O)N[C@H]3C(=O)N[C@H](C(=O)N[C@H](C(=O)O)c4cc(O)cc(O)c4-c4cc3ccc4O)[C@H](O)c3ccc(c(Cl)c3)Oc3cc2cc(c3O[C@@H]2O[C@H](CO)[C@@H](O)[C@H](O)[C@H]2O[C@H]2C[C@](C)(N)[C@H](O)[C@H](C)O2)Oc2ccc(cc2Cl)[C@H]1O [Vancomycin, vancomycin, reference compound]
ΣFICAVG (MRSA strain MW2 [2]; HuS): 0.5
ΣFICMIN (MRSA strain MW2 [2]; HuS): 0.375
ΣFICAVG (MRSA strain MW2 [2]; MHB): 0.63
ΣFICMIN (MRSA strain MW2 [2]; MHB): 0.5
Fold decrease in MIC [3]: no
Minimal inhibitory concentration, MHB [4]: 1 µg/mL (≈ 0.69 µM)
MIC ([4]; read-out: Minimal inhibitory concentration, Human serum): 1 µg/mL (≈ 0.69 µM)
MIC ([4]; read-out: Minimal inhibitory concentration, MHB): 1 µg/mL (≈ 0.69 µM)
Fold decrease in MIC [4]: no
Minimal inhibitory concentration, Human serum [4]: 1 µg/mL (≈ 0.69 µM)
difference in sterilizing activity/potency, blood compared to MHB [5]: slightly decreased potency

CCCCCCCCCC(=O)N[C@@H](Cc1c[nH]c2ccccc12)C(=O)N[C@H](CC(N)=O)C(=O)N[C@@H](CC(=O)O)C(=O)N[C@@H]1C(=O)NCC(=O)N[C@@H](CCCN)C(=O)N[C@@H](CC(=O)O)C(=O)N[C@H](C)C(=O)N[C@@H](CC(=O)O)C(=O)NCC(=O)N[C@H](CO)C(=O)N[C@@H]([C@H](C)CC(=O)O)C(=O)N[C@@H](CC(=O)c2ccccc2N)C(=O)O[C@@H]1C [Daptomycin, daptomycin, reference compound]
ΣFICAVG (MRSA strain MW2 [2]; HuS): 0.292
ΣFICMIN (MRSA strain MW2 [2]; HuS): 0.25
ΣFICAVG (MRSA strain MW2 [2]; MHB): 0.63
ΣFICMIN (MRSA strain MW2 [2]; MHB): 0.5
MIC ([3]; MHB, read-out: Minimal inhibitory concentration, MHB): 0.5 µg/mL (≈ 0.309 µM)
MIC ([3]; human serum, read-out: Minimal inhibitory concentration, Human serum): 8 µg/mL (≈ 4.94 µM)
Fold decrease in MIC [3]: no
reduction in bacterial burden compared to vehicle treated controls (MRSA strain MW2 [6]): 2-3 log10
Minimal inhibitory concentration, MHB [4]: 0.5 µg/mL (≈ 0.309 µM)
Fold decrease in MIC [4]: no
Minimal inhibitory concentration, Human serum [4]: 8 µg/mL (≈ 4.94 µM)

β-Defensin 3: Human AMP (hBD-3) (GIINTLQKYYCRVRGGRCAVLSCLPKEEQIGKCSTRGRKCCRRKK; ends and bridges not checked; cysteine pairing not given here; UniProt P81534 23-67, looked up) [reference compound]
ΣFICavg [1]: 1

LL-37 [reference compound]
ΣFICavg [1]: 1

LEAP-2: Human AMP (MTPFWRGVSLRPIGASCRDDSECITRLCRKRRCSLSVAQE; ends and bridges not checked; cysteine pairing not given here; UniProt Q969E1 38-77, looked up) [reference compound]
ΣFICavg [1]: 1

Source: patent publication US20220023399A1, “BLOOD COMPONENT POTENTIATION OF LYTIC PROTEIN ANTI-BACTERIAL ACTIVITY AND METHODS AND USES THEREOF” (priority 2017, published 2022)
